Each block holds one compound with its values, some of them ahead of it.
Legend:
[1] = target: Phosphodiesterase 3 (Homo sapiens, UniProt Q14432+Q13370); assay: Inhibition of human blood platelet c-AMP phosphodiesterase
[2] = system: Mus musculus; assay: Protection against mortality in pulmonary thromboembolism model in mice at 10 mg/kg; type: functional
[3] = species on record: Homo sapiens; assay: Inhibition of [14C]arachidonic acid induced 6-keto-PGF1-alpha formation at 10 uM (Control 6-keto-PGF1-alpha = 1.45+/-0.6)
[4] = target: T1, Thromboxane-A synthase (Homo sapiens, UniProt P24557); assay: Compound was evaluated for the inhibition of human blood platelet, thromboxane A2 synthase
T1 sequence (P24557 whole entry): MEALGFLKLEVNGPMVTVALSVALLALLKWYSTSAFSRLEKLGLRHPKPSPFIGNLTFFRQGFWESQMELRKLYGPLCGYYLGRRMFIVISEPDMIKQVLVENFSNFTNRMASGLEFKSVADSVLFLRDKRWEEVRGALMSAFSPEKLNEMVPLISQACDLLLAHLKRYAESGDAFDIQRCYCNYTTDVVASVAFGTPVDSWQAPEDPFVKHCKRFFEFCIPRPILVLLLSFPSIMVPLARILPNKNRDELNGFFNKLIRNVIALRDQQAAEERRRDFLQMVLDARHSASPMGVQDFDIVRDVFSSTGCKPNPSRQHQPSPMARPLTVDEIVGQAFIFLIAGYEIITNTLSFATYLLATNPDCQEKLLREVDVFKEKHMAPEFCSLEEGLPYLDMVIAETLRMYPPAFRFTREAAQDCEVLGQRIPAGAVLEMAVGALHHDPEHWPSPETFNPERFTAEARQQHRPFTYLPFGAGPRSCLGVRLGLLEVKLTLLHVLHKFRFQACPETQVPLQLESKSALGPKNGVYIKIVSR

[5] = species on record: Homo sapiens; assay: Inhibition of [14C]arachidonic acid conversion to 6-keto-PGF1-alpha in platelets at 1 uM (Control 6-keto-PGF1-alpha = 1.45+/-0.6)
[6] = system: Rattus norvegicus; assay: (§1) Antihypertensive activity in conscious spontaneously hypertensive rat (SHR), percent change in Systolic blood pressure (SBP) after 1 hr; type: functional
[7] = system: Mus musculus; assay: Protection against mortality in pulmonary thromboembolism model in mice at 1 mg/kg; type: functional
[8] = species on record: Homo sapiens; assay: Inhibition of [14C]arachidonic acid induced platelet TXB2 formation at 0.1 uM (Control TXB2 = 14.9+/-2.5)
[9] = system: Rattus norvegicus; assay: Ex vivo inhibition of blood platelet aggregation in rats at 50 mg/kg peroral dose after 8 hr; type: functional; settings: route oral
[10] = species on record: Homo sapiens; assay: In vitro inhibition of ADP-induced aggregation of human PRP in the presence of pig aortal microsomes (PAM).; type: functional
[11] = system: Rattus norvegicus; assay: Effect of TXA2 synthase inhibitor (compound) on serum TXB2 level in rats at 50 mg/kg po, after 2 hr; type: functional
[12] = system: Mus musculus; assay: Protection against mortality in pulmonary thromboembolism model in mice at 3 mg/kg; type: functional
[13] = system: Rattus norvegicus; assay: Antihypertensive activity in conscious spontaneously hypertensive rat (SHR), percent change in heart rate (beats/min) after 4 hr; type: functional
[14] = species on record: Homo sapiens; assay: (§2) Ratio of IC50(PDE)/IC50(TXA2); type: functional
[15] = system: Rattus norvegicus; assay: Antihypertensive activity in conscious spontaneously hypertensive rat (SHR), percent change in heart rate (beats/min) after 1 hr; type: functional
[16] = system: Rattus norvegicus; assay: Antihypertensive activity in conscious spontaneously hypertensive rat (SHR), percent change in Systolic blood pressure (SBP) after 2 hr; type: functional
[17] = system: Rattus norvegicus; assay: Antihypertensive activity in conscious spontaneously hypertensive rat (SHR), percent change in heart rate (beats/min) after 2 hr; type: functional
[18] = system: Rattus norvegicus; assay: Antihypertensive activity in conscious spontaneously hypertensive rat (SHR), percent change in Systolic blood pressure (SBP) after 4 hr; type: functional
[19] = system: Rattus norvegicus; assay: Ex vivo inhibition of blood platelet aggregation in rats at 50 mg/kg peroral dose after 5 hr; type: functional; settings: route oral
[20] = system: Mus musculus; assay: Protection against mortality in pulmonary thromboembolism model in mice at 30 mg/kg; type: functional
[21] = species on record: Homo sapiens; assay: Ratio of IC50(w/oPAM)/IC50(w/PAM); type: functional
[22] = system: Rattus norvegicus; assay: Ex vivo inhibition of blood platelet aggregation in rats at 50 mg/kg peroral dose after 3 hr; type: functional; settings: route oral
[23] = species on record: Homo sapiens; assay: Inhibition of [14C]arachidonic acid induced platelet aggregation at 1 uM (Control TXB2 = 14.9+/-2.5); type: functional
[24] = species on record: Homo sapiens; assay: Inhibition of [14C]arachidonic acid induced platelet aggregation at 10 uM (Control TXB2 = 14.9+/-2.5); type: functional
[25] = species on record: Homo sapiens; assay: Inhibition of ADP-induced aggregation of human PRP in the absence of pig aortal microsomes (PAM); type: functional
[26] = system: Rattus norvegicus; assay: Ex vivo inhibition of blood platelet aggregation in rats at 100 mg/kg peroral dose after 5 hr; type: functional; settings: route oral
[27] = species on record: Mus musculus; assay: Time course of protection against mortality in a pulmonary thromboembolism model in mice after -1h; type: functional
[28] = species on record: Homo sapiens; assay: Inhibition of [14C]arachidonic acid induced platelet aggregation at 50 uM (Control 6-keto-PGF1-alpha = 1.45+/-0.6); type: functional
[29] = system: Rattus norvegicus; assay: Ex vivo inhibition of blood platelet aggregation in rats at 100 mg/kg peroral dose after 8 hr; type: functional; settings: route oral
[30] = species on record: Mus musculus; assay: Time course of protection against mortality in a pulmonary thromboembolism model in mice after -7h; type: functional
[31] = species on record: Homo sapiens; assay: Inhibition of [14C]arachidonic acid induced platelet aggregation at 50 uM (Control TXB2 = 14.9+/-2.5); type: functional
[32] = species on record: Homo sapiens; assay: Inhibition of [14C]arachidonic acid induced TXB2 formation at 5 uM (Control TXB2 = 14.9+/-2.5)
[33] = system: Rattus norvegicus; assay: Effect of TXA2 synthase inhibitor (compound) on serum TXB2 level in rats at 50 mg/kg po, after 2 hr.; type: functional
[34] = system: Mus musculus; assay: Protection against mortality in pulmonary thromboembolism model in mice at 9 mg/kg; type: functional
[35] = system: Rattus norvegicus; assay: Ex vivo inhibition of blood platelet aggregation in rats at 100 mg/kg peroral dose after 3 hr; type: functional; settings: route oral
[36] = species on record: Mus musculus; assay: Time course of protection against mortality in a pulmonary thromboembolism model in mice after -5h; type: functional
[37] = species on record: Mus musculus; assay: Time course of protection against mortality in a pulmonary thromboembolism model in mice after -3h; type: functional
[38] = system: Mus musculus; assay: Protection against mortality in pulmonary thromboembolism model in mice at 12 mg/kg; type: functional
[39] = target: T1, Thromboxane-A synthase; assay: Compound was evaluated for the inhibition of human blood platelet thromboxane A2 synthase
[40] = species on record: Homo sapiens; assay: Inhibition of ADP-induced platelet aggregation of human PRP in the presence of pig aortal microsomes (PAM); type: functional
[41] = species on record: Homo sapiens; assay: Inhibition of ADP-induced platelet aggregation of human PRP without pig aortal microsomes (PAM); type: functional
[42] = species on record: Homo sapiens; assay: as §2
[43] = system: Rattus norvegicus; assay: Antihypertensive activity in conscious spontaneously hypertensive rat (SHR), percent change in Systolic blood pressure (SBP) after 2 hr at 10 mg/kg peroral dose; type: functional; settings: route oral
[44] = system: Rattus norvegicus; assay: Antihypertensive activity in conscious spontaneously hypertensive rat (SHR), percent change in Systolic blood pressure (SBP) after 4 hr at 10 mg/kg peroral dose; type: functional; settings: route oral
[45] = system: Rattus norvegicus; assay: Antihypertensive activity in conscious spontaneously hypertensive rat (SHR), percent change in heart rate (beats/min) after 4 hr at 10 mg/kg peroral dose; type: functional; settings: route oral
[46] = system: Rattus norvegicus; assay: as §1; type: functional; design: concentration or dose not given beside the values
[47] = system: Rattus norvegicus; assay: Antihypertensive activity in conscious spontaneously hypertensive rat (SHR), percent change in heart rate (beats/min) after 1 hr at 10 mg/kg peroral dose; type: functional; settings: route oral
[48] = system: Rattus norvegicus; assay: Antihypertensive activity in conscious spontaneously hypertensive rat (SHR), percent change in heart rate (beats/min) after 2 hr at 10 mg/kg peroral dose; type: functional; settings: route oral

SMILES: O=C1CCc2cc(-c3cccnc3)ccc2N1
IC50 [1]: 4.4 µM
survival at 10 mg/kg [2]: 40%
6-keto-PGF1α level at 10 µM [3]: 31.9%
IC50 [4]: 0.54 µM
6-keto-PGF1α level at 1 µM [5]: 7.7%
Change systolic BP [6]: -42%
survival at 1 mg/kg [7]: 20%
TXB2 level at 0.1 µM [8]: 21.1%
inhibition in vivo at 50 mg/kg [9]: 4.7%
IC50 [10]: 0.54 µM
inhibition in vivo at 50 mg/kg [11]: 94%
survival at 3 mg/kg [12]: 40%
Change in heart rate [13]: 13%
Ratio [14]: 8.1
Change in heart rate [15]: 13%
Change systolic BP [16]: -28%
Change in heart rate [17]: 18%
Change systolic BP [18]: -22%
inhibition in vivo at 50 mg/kg [19]: 53.2%
survival at 30 mg/kg [20]: 50%
Ratio [21]: 50
inhibition in vivo at 50 mg/kg [22]: 94.7%
TXB2 level at 1 µM [23]: 14.8%
TXB2 level at 10 µM [24]: 4.5%
IC50 [25]: 27 µM

SMILES: Cl.O=C(O)c1ccc(OCCn2ccnc2)cc1 [DAZOXIBEN HYDROCHLORIDE]
inhibition in vivo at 100 mg/kg [26]: 24.6%
Survival [27]: 40%
6-keto-PGF1α level at 50 µM [28]: 25.2%
inhibition in vivo at 100 mg/kg [29]: 50.9%
Survival [30]: 10%
inhibition at 50 µM [31]: 1.5%
TXB2 level at 5 µM [32]: 2.4%
survival at 1 mg/kg [7]: 20%
inhibition in vivo at 50 mg/kg [33]: 74%
survival at 9 mg/kg [34]: 40%
inhibition in vivo at 100 mg/kg [35]: 23.4%
Survival [36]: 20%
Survival [37]: 20%
survival at 12 mg/kg [38]: 50%
survival at 30 mg/kg [20]: 50%

IC50 [1]: 14 µM
IC50 [10]: 25 µM
IC50 [39]: 25 µM
SMILES: CCCCCC(Cn1ccnc1)c1ccc2c(c1)CCC(=O)N2 (stereo not given)

SMILES: Cc1c(Cn2ccnc2)c2ccccc2n1CCC(=O)O [DAZMEGREL]
Survival [27]: 11%
Survival [30]: 10%
survival at 1 mg/kg [7]: 30%
survival at 9 mg/kg [34]: 50%
IC50 [40]: 2 µM
survival at 3 mg/kg [12]: 30%
Survival [36]: 0%
Survival [37]: 20%
IC50 [41]: 97 µM
survival at 12 mg/kg [38]: 60%
survival at 30 mg/kg [20]: 20%

SMILES: O=C1CCc2cc(C(c3ccccc3)n3ccnc3)ccc2N1 (stereo not given)
IC50 [1]: 40 µM
IC50 [4]: 0.35 µM
survival at 1 mg/kg [7]: 20%
survival at 9 mg/kg [34]: 40%
IC50 [10]: 0.35 µM
survival at 3 mg/kg [12]: 20%
Ratio [42]: 114
IC50 [25]: 44 µM

SMILES: O=C1CCc2cc(C#CCn3ccnc3)ccc2N1
Change systolic BP [43]: -5%
Change systolic BP [44]: -15%
Change in heart rate [45]: 11%
Change systolic BP [46]: -3%
Change in heart rate [47]: 9%
Change in heart rate [48]: 11%

IC50 [1]: 16 µM
IC50 [4]: 2 µM
IC50 [10]: 2 µM
IC50 [25]: 80 µM
SMILES: O=C1CCc2cc(-n3ccnc3)ccc2N1
inhibition in vivo at 50 mg/kg [11]: 77%
Ratio [14]: 8
Ratio [21]: 40

— ChEMBL document CHEMBL1126161, “3,4-Dihydroquinolin-2(1H)-ones as combined inhibitors of thromboxane A2 synthase and cAMP phosphodiesterase” (J Med Chem, 1992)
